Data on 16 compounds can be found in US10150728B2, “Alkylene derivatives” (Shionogi & Co., Ltd., priority 2013, dated 2018).

Molecules are shown by their SMILES.

The assay deals with recombinant human ACC2 (Homo sapiens (Human), UniProt O00763). The assay can be described thus: Measurement of inhibitory activity on human ACC2 (MALDI-TOF MS, acetyl CoA to malonyl CoA conversion). The note with it: Tables 155-159. Format: biochemical. The procedure, abridged: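 His-tagged human ACC2 (residues 27–2458) from baculovirus-infected Sf-9 cells was preincubated 1 h in pH 7.4 HEPES-KOH buffer with MgCl2, 6-10 mM potassium citrate, glutathione and BSA. Substrate solution held 1 mM ATP, 0.8 mM acetyl CoA and 25-50 mM bicarbonate. After 1–3 h at room temperature, malonyl CoA/(malonyl+acetyl CoA) was read by negative-mode MALDI-TOF MS; citrate, bicarbonate and time varied by enzyme lot.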
recombinant human ACC2, sequence (O00763 27-2458): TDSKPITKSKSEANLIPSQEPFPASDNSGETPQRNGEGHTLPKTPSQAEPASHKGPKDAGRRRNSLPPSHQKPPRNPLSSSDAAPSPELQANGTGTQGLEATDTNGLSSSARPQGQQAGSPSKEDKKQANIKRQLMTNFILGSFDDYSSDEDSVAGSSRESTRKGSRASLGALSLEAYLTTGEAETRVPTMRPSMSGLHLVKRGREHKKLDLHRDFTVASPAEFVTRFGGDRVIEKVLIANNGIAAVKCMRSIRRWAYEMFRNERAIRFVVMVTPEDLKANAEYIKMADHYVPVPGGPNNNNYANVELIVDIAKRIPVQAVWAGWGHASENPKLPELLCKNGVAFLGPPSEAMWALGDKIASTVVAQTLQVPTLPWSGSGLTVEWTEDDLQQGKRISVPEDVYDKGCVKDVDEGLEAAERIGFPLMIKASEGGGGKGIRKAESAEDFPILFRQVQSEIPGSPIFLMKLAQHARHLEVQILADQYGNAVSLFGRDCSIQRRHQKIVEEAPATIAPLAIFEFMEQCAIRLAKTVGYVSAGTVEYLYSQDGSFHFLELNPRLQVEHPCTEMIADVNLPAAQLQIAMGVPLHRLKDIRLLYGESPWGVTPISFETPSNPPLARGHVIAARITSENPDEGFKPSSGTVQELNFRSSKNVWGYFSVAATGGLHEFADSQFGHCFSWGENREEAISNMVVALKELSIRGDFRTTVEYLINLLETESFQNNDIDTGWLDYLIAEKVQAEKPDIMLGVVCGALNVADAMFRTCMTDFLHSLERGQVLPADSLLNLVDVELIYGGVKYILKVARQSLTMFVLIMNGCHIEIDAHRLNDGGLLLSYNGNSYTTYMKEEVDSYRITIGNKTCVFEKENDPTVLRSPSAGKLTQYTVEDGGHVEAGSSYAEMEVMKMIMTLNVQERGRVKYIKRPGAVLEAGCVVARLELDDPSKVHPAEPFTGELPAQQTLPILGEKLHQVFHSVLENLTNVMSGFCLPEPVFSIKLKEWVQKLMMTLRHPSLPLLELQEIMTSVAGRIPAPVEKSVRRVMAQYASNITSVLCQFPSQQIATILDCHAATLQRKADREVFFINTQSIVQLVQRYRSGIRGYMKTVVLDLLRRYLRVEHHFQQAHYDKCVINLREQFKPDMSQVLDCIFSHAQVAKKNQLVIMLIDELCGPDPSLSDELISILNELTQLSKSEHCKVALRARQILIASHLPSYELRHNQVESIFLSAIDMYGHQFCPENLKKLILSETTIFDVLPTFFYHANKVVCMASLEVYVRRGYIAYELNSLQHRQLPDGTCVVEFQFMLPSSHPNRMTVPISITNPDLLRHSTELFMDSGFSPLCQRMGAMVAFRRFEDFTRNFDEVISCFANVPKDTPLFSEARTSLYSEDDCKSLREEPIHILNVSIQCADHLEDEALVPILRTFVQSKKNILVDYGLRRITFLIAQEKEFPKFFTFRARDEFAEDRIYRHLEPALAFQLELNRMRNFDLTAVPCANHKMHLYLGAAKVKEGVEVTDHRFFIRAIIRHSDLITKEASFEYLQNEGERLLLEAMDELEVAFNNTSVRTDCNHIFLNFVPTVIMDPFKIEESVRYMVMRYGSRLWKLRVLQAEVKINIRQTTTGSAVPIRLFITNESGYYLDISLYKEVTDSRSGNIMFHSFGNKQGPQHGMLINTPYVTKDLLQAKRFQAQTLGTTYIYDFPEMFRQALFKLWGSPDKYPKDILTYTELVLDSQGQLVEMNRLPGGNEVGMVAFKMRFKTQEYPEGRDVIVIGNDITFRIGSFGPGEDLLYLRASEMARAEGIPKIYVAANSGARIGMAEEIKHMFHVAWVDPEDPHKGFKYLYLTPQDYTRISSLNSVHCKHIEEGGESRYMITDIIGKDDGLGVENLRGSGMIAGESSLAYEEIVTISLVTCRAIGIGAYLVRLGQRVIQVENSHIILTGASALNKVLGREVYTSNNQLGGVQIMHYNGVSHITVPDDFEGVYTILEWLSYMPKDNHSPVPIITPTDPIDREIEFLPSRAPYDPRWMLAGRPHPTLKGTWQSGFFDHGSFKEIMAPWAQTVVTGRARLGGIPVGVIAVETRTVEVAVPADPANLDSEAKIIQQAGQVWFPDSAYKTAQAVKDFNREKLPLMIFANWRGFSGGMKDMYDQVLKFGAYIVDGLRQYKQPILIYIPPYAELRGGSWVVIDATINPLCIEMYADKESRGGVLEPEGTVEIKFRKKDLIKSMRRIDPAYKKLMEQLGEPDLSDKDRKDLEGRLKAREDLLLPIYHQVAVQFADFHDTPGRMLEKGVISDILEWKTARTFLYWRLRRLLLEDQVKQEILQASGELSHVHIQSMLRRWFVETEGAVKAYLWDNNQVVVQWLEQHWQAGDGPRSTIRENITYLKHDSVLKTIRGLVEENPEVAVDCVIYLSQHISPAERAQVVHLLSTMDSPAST
A word on the IC50: it is the concentration that gives 50% inhibition. For `CC(=O)N[C@@H](C)[C@@H](C)O[C@H]1CC[C@H](Oc2nc3cnc(OCC(F)F)c(Cl)c3n2C)CC1` [Compound I-732], the IC50 stood at 260 nM.
The figure for `CC(=O)N[C@@H](C)CO[C@H]1CC[C@H](Oc2nc3c(F)c(Cl)c(OCC(F)F)c(F)c3n2C)CC1` [Compound I-733] is 9 nM; for `CC(=O)N[C@@H](C)CO[C@H]1CC[C@H](Oc2nc3c(F)cc(OC4CC4)cc3n2C)CC1` [Compound I-734] it is 4 nM; for `CCOc1ccc2nc(O[C@H]3CC[C@H](OC[C@H](C)NC(C)=O)CC3)n(C)c2c1C1CC1` [Compound I-735] it is 677 nM.
For `CC(=O)N[C@@H](C)CO[C@H]1CC[C@H](Oc2nc3cnc(OC(F)F)c(Cl)c3n2C)CC1` [Compound I-736], the 50% inhibitory concentration (IC50) was 87 nM.
For `CC(=O)N[C@@H](C)CO[C@H]1CC[C@H](Oc2nc3c(F)cc(OCC4CC4)cc3n2C)CC1` [Compound I-737], the half-maximal inhibitory concentration (IC50) was found to be 33 nM.
For `CC(=O)N[C@@H](C)CO[C@H]1CC[C@H](Oc2nc3c(Br)cc(OCc4ccccc4)cc3n2C)CC1` [Compound I-738] the value was 35 nM; for `CCOc1cc(Cl)c2nc(O[C@H]3CC[C@H](OC[C@H](C)NC(C)=O)CC3)n(C)c2c1Cl` [Compound I-739], 7 nM; for `CCOc1cc(F)c2nc(O[C@H]3CC[C@H](OC[C@H](C)NC(C)=O)CC3)n(C)c2c1Cl` [Compound I-740], 3 nM.
In the case of `CC(=O)N[C@@H](C)CO[C@H]1CC[C@H](Oc2nc3c(F)cc(OCC(F)F)c(F)c3n2C)CC1` [Compound I-741], the IC50 was found to be 7 nM.
For `CC(=O)N[C@@H](C)CO[C@H]1CC[C@H](Oc2nc3c(Cl)cc(OCC(F)F)c(F)c3n2C)CC1` [Compound I-742] the value was 13 nM.
For the compound `CC(=O)N[C@@H](C)CO[C@H]1CC[C@H](Nc2nc3c(F)cc(OCC(F)F)c(F)c3n2C)CC1` [Compound I-744], the IC50 was 740 nM.
For `CC(=O)N[C@@H](C)CC(O)[C@@H]1CC[C@@H](Oc2nc3c(F)cc(OCC(F)F)c(F)c3n2C)CO1` (stereo partly shown) [Compound I-745] the value was 490 nM; for `CC(=O)N[C@@H](C)[C@@H](C)O[C@H]1CC[C@H](Oc2nc3cnc(OC4CC4)c(F)c3n2C)CC1` [Compound I-746], 350 nM.
In the case of `CC(=O)N[C@@H](C)CO[C@H]1CC[C@H](Oc2nc3c(F)c(C#N)c(OCC(F)F)c(F)c3n2C)CC1` [Compound I-747], the IC50 was found to be 44 nM.
Regarding `CC(=O)N[C@@H](C)CC[C@H]1OC[C@H](Oc2nc3c(F)cc(OCC(F)F)c(Cl)c3n2C)CO1` [Compound I-748], the IC50 is 5 nM.
